Measured values as given in paper PMC3749252 (Nature chemical biology, 2013).

How the values were obtained:
[1] = molecular target: T1, mouse Smoothened (mSmo) (Mus musculus, UniProt P56726); assay: competition of 22-NHC bead binding
T1 sequence (P56726 32-236): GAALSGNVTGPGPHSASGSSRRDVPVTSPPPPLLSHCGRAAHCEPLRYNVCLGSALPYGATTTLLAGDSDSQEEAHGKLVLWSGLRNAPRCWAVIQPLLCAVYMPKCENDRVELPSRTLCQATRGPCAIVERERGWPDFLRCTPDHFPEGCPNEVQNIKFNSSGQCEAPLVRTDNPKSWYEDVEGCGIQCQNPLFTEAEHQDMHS

[2] = molecular target: T1, mouse Smoothened (mSmo); assay: competition of binding to 20-OHC affinity beads, immunoblot

Q: How did the “competition of 22-NHC bead binding; 20-OHC affinity beads, immunoblot” value [1] turn out when `CC(C)CCC[C@](C)(O)[C@H]1CC[C@H]2[C@@H]3CC=C4C[C@@H](O)CC[C@]4(C)[C@H]3CC[C@@]21C` [20(S)-hydroxycholesterol] was run?
A: Binding of mSmoCRD to 22-NHC beads was competed by 20-OHC and 20-OHC-Pent, but not by 7-OHC

Q: With `C[C@H](CCCC(C)(C)O)[C@H]1CC[C@H]2[C@@H]3CC=C4C[C@@H](O)CC[C@]4(C)[C@H]3CC[C@]12C` [25-OHC] as the molecule, how does the “competition of binding to 20-OHC affinity beads, immunoblot” value [2] read?
A: binding of mSmo and mSmoCRD to 20-OHC beads was competed by the active oxysterol 25-OHC
